From patent publication US7767681B2, “2-Carbamide-4-phenylthiazole derivatives, preparation thereof and therapeutic use thereof” (sanofi-aventis, priority 2004, dated 2010)
Structures can show the parent of a compound that is named as a salt. Where two headings read alike, the source gives them in different places.

What was measured:
HIV-1 Bal virus = assay: Inhibitory activity on PBMCs infected with HIV-1 Bal (reverse transcriptase in supernatant); format: cell-based; conditions: compounds in culture medium for 5 days, read-out: IC50 viral replication (amount of reverse transcriptase in the supernatant)
Description: The inhibitory activity of the compounds according to the invention was also measured on PBMCs (peripheral blood mononuclear cells) infected with the HIV-1 Bal virus, according to a technique adapted from that described by V. Dolle et al., J. Med. Chem., 2000, 43, 3949, 3962. According to this technique, the PBMCs are infected with HIV-1 Bal and the compounds to be tested are then added to the culture medium for 5 days. At the end of this exposure, the amount of reverse transcriptase in the supernatant is measured, which correlates with the level of viral replication in the cells.

human CCR2b receptor = target: T1, human CCR2b receptor (Homo sapiens, UniProt P41597); assay: Inhibitory activity on cells expressing the human CCR2b receptor; format: cell-based
T1 sequence (P41597 1-360 isoform P41597-2): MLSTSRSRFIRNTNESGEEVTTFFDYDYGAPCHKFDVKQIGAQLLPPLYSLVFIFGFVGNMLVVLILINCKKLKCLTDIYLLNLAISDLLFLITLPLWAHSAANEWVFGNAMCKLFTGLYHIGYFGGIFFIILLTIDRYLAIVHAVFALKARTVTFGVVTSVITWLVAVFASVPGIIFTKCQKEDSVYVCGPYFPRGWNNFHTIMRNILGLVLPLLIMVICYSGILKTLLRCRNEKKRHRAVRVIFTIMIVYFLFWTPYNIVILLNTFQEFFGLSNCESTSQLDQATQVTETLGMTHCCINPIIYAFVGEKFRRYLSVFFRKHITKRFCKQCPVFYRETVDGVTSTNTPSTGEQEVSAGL
Description: The inhibitory activity of the compounds according to the invention on cells expressing the human CCR2b receptor was measured.

[1] = system: human THP-1 monocyte cells; assay: Inhibition of chemotaxis on human THP-1 monocyte cells; format: cell-based; conditions: read-out: IC50 inhibition of chemotaxis (hMCP-1)
Description: The inhibition of chemotaxis was also measured on human THP-1 monocyte cells (sold by DSMZ—Germany), using a technique adapted from that described by A. Albini et al., Cancer Res., 1987, 47, 3239-3245.
The inhibition of chemotaxis by the compounds according to the invention is a sign of their antagonistic activity on chemokine receptors, and in particular the CCR2b receptor.

[2] = read-out: IC50 of the activity of the CCR2b receptor

Molecule	melting point	IC50 (human CCR2b receptor; [2])	further results
Cc1cn([C@H]2C[C@H](N=[N+]=[N-])[C@@H](CO)O2)c(=O)[nH]c1=O [AZT]			IC50 (HIV-1 Bal virus): < 1000 nM
CCCc1ccc(OC)c(-c2csc(NC(=O)N3CCN(CCCN(CC)CC)CC3)n2)c1 (as salt: HCl) [Compound No. 14]	145 °C		
CCCc1ccc(OC)c(-c2csc(NC(=O)N3CCN(CCCN(CC)CC)CC3)n2)c1 [Compound No. 14]		3.3 nM	
hMCP-1: human monocyte chemotactic protein, CC chemokine, natural agonist of the CCR2b receptor [reference compound]			IC50 (human CCR2b receptor; read-out: IC50 of the activity of the CCR2b receptor (natural agonist hMCP-1)): 0.57 nM; IC50 [1]: 6 nM
COc1ccc(C2CCCC2)cc1-c1csc(NC(=O)N2CCN(CC3CCN(C)CC3)CC2)n1 [Compound No. 55]	102 °C	14 nM	
